Key:
[1] = Metabolic stability in rat liver S9 fraction; assay type: in vitro ADME
Procedure: The metabolic stability of SP-8356 was investigated using rat, dog and human liver S9 fractions fortified with cofactors for major drug metabolism. The final reaction mixture contained 1 mg/mL rat, dog or human liver S9 fraction, 1 mM cofactors (NADPH, UDPGA, PAPS, SAM and GSH), 2 mM MgCl2, 25 µg/mL alamethicin and 1 µM SP-8356 in final volume of 200 µL. The metabolic reactions were initiated by adding 10 mM cofactor solution to reaction mixtures preincubated for 5 min at 37 °C. The reactions were terminated at (0, 5, 15, 30 and 60) min by the addition of 200 µL ice-cold acetonitrile containing HSDH (1 µg/mL). The subsequent sample preparation and analytical methods were the same as those described in Section 4.5.
The degradation t1/2 of SP-8356 was calculated using the following Equation:(1) t1/2=0.693/k, where, k was the first-order rate constant calculated by one phase decay nonlinear regression using GraphPad Prism™ 7 (GraphPad Software, La Jolla, CA, USA). CLint was calculated using the following Equation:(2) CLint=k/fu,S9· mL incubation/mg liver S9· mg S9/g liver·g liver/kg body wt.
The scaling factors were (136, 120.7 and 120.7) mg S9 protein/g liver and (40, 32 and 26) g liver/kg body weight for rats, dogs and humans, respectively. For simplicity, the fraction unbound in S9 incubation (fu, S9) was assumed to be one. CLH was predicted using the hepatic well-stirred model, as follows:(3) CLH=QH·fu·CLint/QH+fu·CLint, where, QH was the hepatic blood flow of (55, 30 and 20) mL/min/kg for rats, dogs and humans, respectively. The fraction unbound (fu) was assumed to be one. EH was calculated using the following Equation:(4) EH=CLH/QH.

[2] = In vivo metabolite identification, pooled rat urine; details: rat pooled urine 0–24 h, single i.v. dose of SP-8356
Procedure: Rat urine samples were collected from the animal studies approved by the IACUC of Korea University (Approval No.: KUIACUC-2017-124; Approval date: Jul. 29, 2017). SP-8356 dissolved in DMA/Cremophor EL/saline (5/10/85 vol.%) was dosed i.v. at 10 mg/kg (n = 5/dose group) to male SD rats (8 weeks old; (255–275) g; Koatech Inc., Gyeonggi, Republic of Korea) housed individually in metabolic cages. Urine samples were collected for ((0–4), (4–8) and (8–24)) h. Pooled urine samples were mixed with equal volume of acetonitrile containing HSDH (1 μg/mL) as IS, followed by filtration with a syringeless filter device (Mini-UniPrep™, PTFE filter media with polypropylene housing, 0.45 µm). The filtrate was analyzed by Agilent 6530 Q-TOF LC-MS/MS system equipped with dual AJS ESI ion source and Agilent 1200 series HPLC system, as follows.
Chromatographic separation was achieved on an Agilent Eclipse C18 column (2.1 mm × 100 mm, 3.5 µm) by a gradient elution with a mobile phase consisting of 0.1 vol.% formic acid in water (A) and 0.1 vol.% formic acid in acetonitrile (B) at 50 °C: starting with 5 vol.% B for 2 min, ramping to 95 vol.% B over 1 min, maintaining for 3 min. The mobile phase flow rate was kept at 0.45 mL/min throughout the run. The sample injection volume was 5 µL. […]

CLint scaled at 1 µM ([1]; Sprague-Dawley, liver S9 fraction, rat liver S9, +Cofactors): 2900 mL/min/kg
EH ([1]; rat, +Cofactors, EH = CLH/QH): 0.98
CLH ([1]; rat, +Cofactors, predicted by well-stirred model): 54.0 mL/min/kg
relative peak size (AR) in urine, in total [2]: almost insignificant
Compound: COc1cc(/C=C/C2=CC(=O)[C@H]3C[C@@H]2C3(C)C)cc(O)c1O [SP-8356, (1S,5R)-4-((E)-3,4-dihydroxy-5-methoxystryryl)-6,6-dimethylbicylco[3.1.1]hept-3-en-2-one]

— PMC7221793, “Metabolism and Pharmacokinetics of SP-8356, a Novel (1S)-(−)-Verbenone Derivative, in Rats and Dogs and Its Implications in Humans” (Molecules, 2020)
